Experimental data as given in the NIST ThermoML archive (doi:10.1016/j.tca.2013.05.022).

What was measured:
[1] = relative permittivity at zero frequency (dimensionless); conditions: Liquid, Parallel plate capacitor
[2] = relative permittivity at zero frequency (dimensionless); φn = volume fraction of the nth substance listed; conditions: Liquid, Parallel plate capacitor

CCO [ethanol]
[1], 101 kPa
Conditions | relative permittivity at zero frequency
303 K | 24.26
313 K | 23.85
323 K | 23.25

CCO [ethanol] + Cc1ccccc1
[2], 101 kPa, φ1 = 1
Conditions | relative permittivity at zero frequency
303 K | 24.26
313 K | 23.85
323 K | 23.25

CO [methanol]
[1], 101 kPa
Conditions | relative permittivity at zero frequency
303 K | 33.19
313 K | 32.35
323 K | 31.98

CO [methanol] + Cc1ccccc1
[2], 101 kPa, φ1 = 1
Conditions | relative permittivity at zero frequency
303 K | 33.19
313 K | 32.35
323 K | 31.98

CCCO [propan-1-ol]
[1], 101 kPa
Conditions | relative permittivity at zero frequency
303 K | 19.95
313 K | 18.65
323 K | 17.82

CCCO [propan-1-ol] + Cc1ccccc1
[2], 101 kPa, φ1 = 1
Conditions | relative permittivity at zero frequency
303 K | 19.95
313 K | 18.65
323 K | 17.82

CC(C)O [propan-2-ol]
[1], 307116 kPa
Conditions | relative permittivity at zero frequency
303 K | 18.25
313 K | 17.75
323 K | 16.57

CC(C)O [propan-2-ol] + Cc1ccccc1
relative permittivity at zero frequency, [2], 307116 kPa
Conditions | φ1 = 0.1 | φ1 = 0.2 | φ1 = 0.3 | φ1 = 0.4 | φ1 = 0.5 | φ1 = 0.6 | φ1 = 0.7 | φ1 = 0.8 | φ1 = 0.9 | φ1 = 1
303 K | 3.55 | 4.83 | 5.98 | 6.85 | 8.06 | 10.1 | 12.09 | 14.27 | 16.36 | 18.25
313 K | 3.12 | 4.48 | 5.55 | 6.45 | 7.75 | 9.73 | 11.75 | 13.65 | 15.98 | 17.75
323 K | 3 | 4.12 | 5.13 | 6.15 | 7.46 | 9.45 | 11.24 | 13.34 | 15.35 | 16.57

Cc1ccccc1 [toluene] + CCCO
relative permittivity at zero frequency, [2], 101 kPa
Conditions | φ2 = 0.1 | φ2 = 0.2 | φ2 = 0.3 | φ2 = 0.4 | φ2 = 0.5 | φ2 = 0.6 | φ2 = 0.7 | φ2 = 0.8 | φ2 = 0.9
303 K | 3.28 | 4.67 | 6.29 | 7.59 | 8.79 | 11.44 | 13.76 | 15.84 | 18.08
313 K | 3.17 | 4.59 | 6.18 | 7.23 | 8.17 | 11.18 | 13.37 | 15.59 | 17.87
323 K | 2.98 | 4.42 | 5.95 | 6.89 | 7.88 | 10.89 | 13.18 | 15.29 | 17.24

Cc1ccccc1 [toluene] + CCO
relative permittivity at zero frequency, [2], 101 kPa
Conditions | φ2 = 0.1 | φ2 = 0.2 | φ2 = 0.3 | φ2 = 0.4 | φ2 = 0.5 | φ2 = 0.6 | φ2 = 0.7 | φ2 = 0.8 | φ2 = 0.9
303 K | 3.97 | 5.64 | 7.43 | 8.29 | 10.1 | 12.53 | 15.27 | 18.07 | 21.14
313 K | 3.42 | 5.27 | 6.34 | 7.98 | 9.7 | 12.26 | 14.78 | 17.72 | 20.78
323 K | 2.95 | 4.91 | 6.14 | 7.87 | 9.2 | 12.07 | 14.54 | 17.28 | 20.14

Cc1ccccc1 [toluene] + CO
relative permittivity at zero frequency, [2], 101 kPa
Conditions | φ2 = 0.1 | φ2 = 0.2 | φ2 = 0.3 | φ2 = 0.4 | φ2 = 0.5 | φ2 = 0.6 | φ2 = 0.7 | φ2 = 0.8 | φ2 = 0.9
303 K | 5.82 | 7.85 | 10.56 | 12.89 | 15.86 | 19.25 | 22.54 | 25.91 | 29.34
313 K | 5.03 | 7.57 | 10.29 | 12.66 | 15.11 | 18.71 | 22.17 | 25.38 | 28.83
323 K | 4.87 | 6.92 | 9.82 | 12.14 | 14.72 | 18.27 | 21.67 | 24.95 | 28.42
